In paper PMC10354055, “An optimized Nurr1 agonist provides disease-modifying effects in Parkinson’s disease models” (Nature Communications, 2023):
Several values for one entry are separate records, joined by “and”; a condition that tells them apart may be missing. Equal values may be shown once.

Experiments:
[1] = tested on: MN9D cells; experiment: Cell viability, MTT reduction, MPP+-treated MN9D cells; assay type: cell-based, mouse
Procedure: Cell viability was determined using 3-(4,5-dimethylthiazol-2-yl)-2,5-diphenyltetrazolium bromide (MTT) as previously described[60]. Briefly, cells were incubated with 5 mg/ml of MTT (Sigma-Aldrich) solution for 3.5 h at 37 °C. MTT formazan crystals were dissolved in 10 times the volume of MTT solvent (4 mM HCl and 0.1% Nonidet P-40 in isopropanol) and the absorbance from the generated blue formazan was measured at 570 nm after 15 min incubation at room temperature. Cell viability was calculated as a percentage (%) of MTT reduction relative to vehicle control.

[2] = tested on: Nurr1 mRNA; experiment: Nurr1 mRNA level, qRT-PCR, MN9D cells; assay type: cell-based, mouse; details: for Nurr1 mRNA levels (in words): MPP+ or αSyn overexpression; for Relative Nurr1 mRNA expression (fold of Cont.): Fig. S4f; for Relative Nurr1 mRNA expression (fold of +GFP Basal): Fig. S4h
Procedure: Total RNA was extracted using the GeneJET RNA Purification Kit (Thermo Fisher Scientific) and 100 ng of RNA was subjected to cDNA synthesis using Invitrogen Superscript cDNA Synthesis Kit (Invitrogen) according to the manufacturer’s protocol. qRT-PCR was performed using a CFX Connect Real-Time System (Bio-Rad) in a 20 μl volume mixture containing 2X SsoAdvanced Universal SYBR Green Supermix (Bio-Rad), 100 ng/μl of forward and reverse primers, and 1 μl of cDNA sample. Gene expression levels were quantified by the 2^∆∆CT method (Ct of target gene—Ct of glyceraldehyde-3-phosphate dehydrogenase (GAPDH). The following primers were used for qRT-PCR: TH forward: 5′-[…]-3′, reverse: 5′-[…]-3′; DAT forward: 5′-[…]-3′, reverse: 5′-[…]-3′; AADC forward: 5′-[…]-3′, reverse: 5′-[…]-3′; VMAT2 forward: 5′-[…]-3′, reverse: 5′-[…]-3′; c-Ret forward: 5′-[…]-3′, reverse: 5′-[…]-3′; TNFα forward: 5′-[…]-3′; reverse: 5′-[…]-3′; GAPDH, forward 5′-[…]-3′, reverse 5′-[…]-3′.
(§1) Lenti-GFP, -αSyn^WT, and -αSyn^A53T viruses were generated separately by co-transfecting each shuttle plasmid with lentivirus packaging plasmids into HEK293T cells using lipofectamine 2000 (Invitrogen). Briefly, 2 μg each FUW inducible shuttle plasmid, 2 μg FUW-rtTA, 2 μg psPax2 and 1.5 μg MD2.G were mixed and transfected into HEK293T cells. After 48 h, viral supernatants were collected and centrifuged at 1000g for 10 min, and subsequently filtered through a 0.45 μm filter. Lentiviruses were transduced into MN9D cells with 8 μg/ml of polybrene and the viral supernatant was removed and replaced with fresh medium a day after transduction.

[3] = tested on: Nurr1 protein; experiment: Nurr1 protein level, Western blot, MN9D cells with MPP+ or αSyn overexpression; assay type: cell-based, mouse; details: for Relative Nurr1 expression (% of Cont.): Fig. S4g; for Relative Nurr1 expression (% of +GFP Basal): Fig. S4i
Procedure: Experiments were confirmed by duplicate measurements of the same sample. Quantification of immunoreactive bands was performed using ImageJ software (NIH, Bethesda, MD, USA) and expressed as a relative ratio against β-actin.
as §1

[4] = tested on: MPTP-induced male mice; experiment: AIMs scoring (dyskinesia), MPTP-induced PD model mice; assay type: in vivo, mouse; details: for abnormal involuntary movements (AIMs) (in words): CQ 40, 4A7C-301 5, L-DOPA 50 mg/kg/day, i.p.; for AIMs score (20-140 min): Figure 4f, MPTP-induced mice, individual animal values
Procedure: Male C57BL/6 J mice (8–10 weeks, 25–30 g; Jackson Laboratories) were randomly assigned to 5 groups including vehicle (VEH), MPTP, MPTP + L-DOPA, MPTP + CQ and MPTP + 4A7C-301 (n ≥ 7 for each group). MPTP (Sigma-Aldrich) was intraperitoneally (i.p.) injected (30 mg/kg) for 5 days (Day 1-5). Different dosages of CQ (20, 40, and 80 mg/kg) and 4A7C-301 (1, 5, 20 mg/kg) were first tested to determine the effective dose window, then 40 and 5 mg/kg doses were finally selected for CQ and 4A7C-301 respectively to show the most prominent effects. CQ or 4A7C-301 was dissolved in PBS and administrated (i.p.) for 16 days starting with MPTP injection (Day 1-16). To test dyskinetic involuntary behavior, an L-DOPA injected group was included, which received 50 mg/kg of L-DOPA and 15 mg/kg of benserazide (Sigma-Aldrich) (i.p.) for 16 days (Day 1–16). All compounds were administered 6 h post-MPTP injection to avoid any effect of compounds on the MPTP metabolism in the brain. Motor and non-motor related behavior tests were performed on the following days as described in Fig. 4a in an assessor- and observer-blinded fashion. Pre-training and baseline setup for motor-related behaviors were performed 3 days prior to the injections. Mice were sacrificed and subjected to immunohistochemistry. Mice were housed at the Animal Care Facilities of McLean Hospital under a 12-h light/12-h dark cycle, ambient temperature and humidity. Animals were handled in accordance with McLean Hospital’s Institutional Animal Care and Use Committee (Protocol #: 2015N000002) and followed National Institutes of Health guidelines.
Abnormal involuntary movements (AIMs) were scored using the developed mouse dyskinesia rating scale as described in Sebastianutto et al.. Briefly, 4 mice were recorded simultaneously with a Swann HD Security System (B&H Photo-Video Inc.) for 2 min per session, every 20 min during the 140 min following drug injections (i.e., total 7 sessions), on every other or third day (Day 2, 4, 7, 9, 11, 13, and 16). Dyskinetic movements were scored for 3 subtypes of basic AIMs including axial, forelimb and orolingual AIMs, based on the severity scale from 0 to 4 which measures the duration of AIMs (0 = no dyskinesia; 1 = display dyskinesia for <50% of the observation time; 2 = display dyskinesia for >50% of the observation time; 3 = display dyskinesia for the entire observation period but ceased upon external stimuli; 4 = display continuous and unceasing dyskinesia). To get a better and more sensitive validation of mice dyskinesia, we included an amplitude AIMs score, which rates the degree of deviation of body part or muscle position from its resting position on a 0-4 scale as previously described. Finally, global AIMs score was calculated by multiplying basic AIMs and amplitude AIMs scores for each subtype on each session. Data points were plotted as the grand total of individual AIMs score on each testing day.

[5] = Fig. S3e, MPP+, Control, CQ 100 µM, 4A7C-301 1 µM
[6] = Fig. S3e, MPP+, Nurr1 KD, CQ 100 µM, 4A7C-301 1 µM
[7] = Fig. S3e, MPP+, Nurr1 OE, CQ 100 µM, 4A7C-301 1 µM
[8] = against MPP+ and αSynWT overexpression

SMILES | MTT reduction (%) ([1]; Fig. S3c, with MPP+, 1 µM) | MTT reduction (%) ([1]; Fig. S3c, with MPP+, 5 µM) | MTT reduction (%) ([1]; Fig. S3c, with MPP+, 10 µM) | MTT reduction (%) [1, 5] | MTT reduction (%) [1, 6] | MTT reduction (%) [1, 7] | Nurr1 mRNA levels (in words) [2] | Nurr1 protein levels (in words) [3, 8] | abnormal involuntary movements (AIMs) (in words) [4] | AIMs score (20-140 min) ([4]; day 2) | AIMs score (20-140 min) ([4]; day 4) | AIMs score (20-140 min) ([4]; day 7) | AIMs score (20-140 min) ([4]; day 9) | AIMs score (20-140 min) ([4]; day 11) | AIMs score (20-140 min) ([4]; day 13) | AIMs score (20-140 min) ([4]; day 16) | further results
CCN(CC)CCCC(C)Nc1ccnc2cc(Cl)ccc12 (stereo not shown) [CQ, chloroquine] | 53.8043% and 53.2609% and 51.6304% | 55.4348% and 56.5217% | 57.6087% and 55.9783% and 57.0652% | 62.8947% and 66.3158% and 61.0526% and 60.2632% | 34.7368% and 29.4737% and 30.7895% and 32.6316% | 86.0526% and 90.2105% and 84.3158% and 89.4737% | did not alter | significantly restored | did not induce any detectable AIMs | 0 | 0 | 0 | 0 | 0 | 0 | 0 | MTT reduction (%) ([1]; Fig. S3c, with MPP+, 50 µM): 61.413% and 59.7826%; MTT reduction (%) ([1]; Fig. S3c, with MPP+, 100 µM): 62.5% and 61.413% and 64.6739%
CCN1CCN(c2cc(N3CCN(CC)CC3)nc(NCCNc3ccnc4cc(Cl)ccc34)n2)CC1 [4A7C-301, N^1-(4,6-bis(4-ethylpiperazin-1-yl)pyrimidin-2-yl)-N^2-(7-chloroquinolin-4-yl)ethane-1,2-diamine] | 63.0435% and 64.1304% and 62.5% | 63.587% and 61.9565% and 64.6739% | 63.587% and 61.9565% | 68.2632% and 62.1053% and 68.2105% and 63.0526% | 31.8421% and 30.5263% and 31.5789% and 29.7368% | 85.4211% and 91.8947% and 89.4737% and 88.2632% | did not alter | significantly restored | did not induce any detectable AIMs | 0 | 0 | 0 | 0 | 0 | 0 | 0 | MTT reduction (%) ([1]; Fig. S1f, with MPP+, conc. 0.1 µM, replicates): 55.1664% and 54.641% and 56.7426%; MTT reduction (%) ([1]; Fig. S1f, with MPP+, conc. 0.5 µM, replicates): 58.8441% and 58.3187% and 60.4203%; MTT reduction (%) ([1]; Fig. S1f, with MPP+, conc. 1 µM, replicates): 62.5219% (2×) and 61.4711%; MTT reduction (%) ([1]; Fig. S1f, with MPP+, conc. 5 µM, replicates): 60.9457% and 62.5219% and 63.0473%; MTT reduction (%) ([1]; Fig. S1f, with MPP+, conc. 10 µM, replicates): 61.9965% and 61.4711% and 63.0473%; MTT reduction (%) ([1]; Fig. S3c, with MPP+, 0.1 µM): 54.8913% and 57.0652% and 55.4348%; MTT reduction (%) ([1]; Fig. S3c, with MPP+, 0.5 µM): 59.2391% and 59.7826% and 60.3261%; Relative Nurr1 mRNA expression (fold of Cont.) ([2]; w/ MPP+): 0.4287 fold of Cont. and 0.414 fold of Cont. and 0.4438 fold of Cont.; Relative Nurr1 mRNA expression (fold of Cont.) ([2]; w/o MPP+): 1.004 fold of Cont. and 0.9452 fold of Cont. and 0.974 fold of Cont.; Relative Nurr1 mRNA expression (fold of +GFP Basal) ([2]; + GFP): 1.067 fold of +GFP Basal and 0.9407 fold of +GFP Basal and 1.002 fold of +GFP Basal; Relative Nurr1 mRNA expression (fold of +GFP Basal) ([2]; + αSynA53T): 0.5837 fold of +GFP Basal and 0.5113 fold of +GFP Basal and 0.5463 fold of +GFP Basal; Relative Nurr1 mRNA expression (fold of +GFP Basal) ([2]; + αSynWT): 0.7154 fold of +GFP Basal and 0.8045 fold of +GFP Basal and 0.7587 fold of +GFP Basal; Relative Nurr1 expression (% of Cont.) ([3]; w/ MPP+): 99.091 % of Cont. and 100.486 % of Cont. and 100.693 % of Cont.; Relative Nurr1 expression (% of Cont.) ([3]; w/o MPP+): 101.351 % of Cont. and 99.92 % of Cont. and 104.55 % of Cont.; Relative Nurr1 expression (% of +GFP Basal) ([3]; + GFP): 98.029 % of +GFP Basal and 101.483 % of +GFP Basal and 98.211 % of +GFP Basal; Relative Nurr1 expression (% of +GFP Basal) ([3]; + αSynA53T): 84.572 % of +GFP Basal and 86.142 % of +GFP Basal and 86.409 % of +GFP Basal; Relative Nurr1 expression (% of +GFP Basal) ([3]; + αSynWT): 92.781 % of +GFP Basal and 95.357 % of +GFP Basal and 90.953 % of +GFP Basal; Nurr1 protein levels (in words) ([3]; against αSynA53T overexpression): maintained
